#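 Growth conditions: 96-well plates. Treatment: test compound, 48 hours, 5 concentrations. Analysis: linear interpolation between bracketing concentrations; unreached endpoints set to highest concentration. At the GI50, growth is halved. Definition used: TGI = concentration required for complete inhibition of growth.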
# Assays:
# Assay in all cases: NCI anticancer screen, dose series, 48 h
# [1] = test system: SF-295 CNS
# [2] = test system: NCI-H522 lung
# [3] = test system: UO-31 renal
# [4] = test system: HCT-116 colon
# [5] = test system: SK-OV-3 ovarian
# [6] = test system: HCT-15 colon
# [7] = test system: PC-3 prostate
# [8] = test system: RXF 393 renal
# [9] = test system: HCC-2998 colon
# [10] = test system: IGROV1 ovarian
# [11] = test system: SK-MEL-5 melanoma
# [12] = test system: SF-268 CNS
# [13] = test system: SN12C renal
# [14] = test system: KM12 colon
# [15] = test system: M14 melanoma
# [16] = test system: TK-10 renal
# [17] = test system: COLO 205 colon
# [18] = test system: HOP-62 NSCLC
# [19] = test system: 786-0 renal
# [20] = test system: SNB-19 CNS
# [21] = test system: OVCAR-3 ovarian
# [22] = test system: U251 CNS
# [23] = test system: MDA-MB-435
# [24] = test system: SK-MEL-28 melanoma
# [25] = test system: UACC-62 melanoma
# [26] = test system: MCF7 breast
# [27] = test system: K-562 leukemia
# [28] = test system: HS 578T breast
# [29] = test system: LOX IMVI melanoma
# [30] = test system: DU-145 prostate
# [31] = test system: MOLT-4 leukemia
# [32] = test system: NCI/ADR-RES ovarian
# [33] = test system: MALME-3M melanoma
# [34] = test system: SK-MEL-2 melanoma
# [35] = test system: A549 NSCLC
# [36] = test system: T-47D breast
# [37] = test system: BT-549 breast
# [38] = test system: SR leukemia
# [39] = test system: NCI-H23 lung
# [40] = test system: ACHN renal
# [41] = test system: HT29 colon
# [42] = test system: EKVX NSCLC
# [43] = test system: HOP-92 NSCLC
# [44] = test system: SW-620 colon
# [45] = test system: NCI-H226 lung
# [46] = test system: UACC-257 melanoma
# [47] = test system: OVCAR-5 ovarian
# [48] = test system: HL-60(TB) leukemia
# [49] = test system: RPMI-8226 leukemia
# [50] = test system: MDA-MB-231 breast
# [51] = test system: SNB-75 CNS
# [52] = test system: SF-539 CNS
# [53] = test system: NCI-H460 lung
# [54] = test system: A498 renal
# [55] = test system: OVCAR-4 ovarian
# [56] = test system: OVCAR-8 ovarian
# [57] = test system: CAKI-1 renal
# [58] = test system: CCRF-CEM leukemia
# [59] = test system: MDA-N
smiles,measurement,setting,value
CCOC(=O)C(Cc1ccc(N(CCCl)CCCl)cc1)NC(=O)C(CC(C)C)NC(C)=O (stereo unspecified),GI50,[1],2.12 µM
same,TGI,[1],16.6 µM
same,GI50,[2],1.13 µM
same,TGI,[2],2.65 µM
same,GI50,[3],0.512 µM
same,TGI,[3],2.91 µM
same,GI50,[4],1.06 µM
same,TGI,[4],3.56 µM
same,GI50,[5],1.38 µM
same,TGI,[5],4.94 µM
same,GI50,[6],2.22 µM
same,TGI,[6],> 27.8 µM
same,GI50,[7],1.3 µM
same,TGI,[7],5.4 µM
same,GI50,[8],0.944 µM
same,TGI,[8],2.3 µM
same,GI50,[9],1.82 µM
same,TGI,[9],5.95 µM
same,GI50,[10],1.52 µM
same,TGI,[10],4.72 µM
same,GI50,[11],2.45 µM
same,TGI,[11],9.82 µM
same,GI50,[12],1.09 µM
same,TGI,[12],5.51 µM
same,GI50,[13],0.999 µM
same,TGI,[13],10.9 µM
same,GI50,[14],4.35 µM
same,TGI,[14],18.8 µM
same,GI50,[15],0.568 µM
same,TGI,[15],2.19 µM
same,GI50,[16],1.98 µM
same,TGI,[16],4.87 µM
same,GI50,[17],1.25 µM
same,TGI,[17],2.7 µM
same,GI50,[18],1.32 µM
same,TGI,[18],3.8 µM
same,GI50,[19],1.38 µM
same,TGI,[19],4.38 µM
same,GI50,[20],3.55 µM
same,TGI,[20],16.7 µM
same,GI50,[21],0.332 µM
same,TGI,[21],1.4 µM
same,GI50,[22],1.39 µM
same,TGI,[22],8.13 µM
same,GI50,[23],1.43 µM
same,TGI,[23],3.25 µM
same,GI50,[24],1.61 µM
same,TGI,[24],3.82 µM
same,GI50,[25],0.659 µM
same,TGI,[25],2.19 µM
same,GI50,[26],0.699 µM
same,TGI,[26],15.4 µM
same,GI50,[27],1.19 µM
same,TGI,[27],7.96 µM
same,GI50,[28],2.55 µM
same,TGI,[28],7.92 µM
same,GI50,[29],0.296 µM
same,TGI,[29],2.23 µM
same,GI50,[30],0.472 µM
same,TGI,[30],4.41 µM
same,GI50,[31],0.302 µM
same,TGI,[31],2.4 µM
same,GI50,[32],2.14 µM
same,TGI,[32],16.9 µM
same,GI50,[33],0.873 µM
same,TGI,[33],2.74 µM
same,GI50,[34],2.61 µM
same,TGI,[34],5.13 µM
same,GI50,[35],1.73 µM
same,TGI,[35],25.6 µM
same,GI50,[36],0.642 µM
same,TGI,[36],3.48 µM
same,GI50,[37],7.07 µM
same,TGI,[37],21.7 µM
same,GI50,[38],0.0344 µM
same,TGI,[38],6.89 µM
same,GI50,[39],0.679 µM
same,TGI,[39],2.68 µM
same,GI50,[40],0.173 µM
same,TGI,[40],1.42 µM
same,GI50,[41],1.28 µM
same,TGI,[41],5.68 µM
same,GI50,[42],5.95 µM
same,TGI,[42],19.7 µM
same,GI50,[43],0.727 µM
same,TGI,[43],2.82 µM
same,GI50,[44],1.08 µM
same,TGI,[44],6.03 µM
same,GI50,[45],3.79 µM
same,TGI,[45],10.7 µM
same,GI50,[46],1.69 µM
same,TGI,[46],5.66 µM
same,GI50,[47],3.18 µM
same,TGI,[47],12 µM
same,GI50,[48],0.304 µM
same,TGI,[48],1.9 µM
same,GI50,[49],1.96 µM
same,TGI,[49],6.7 µM
same,GI50,[50],2 µM
same,TGI,[50],4.94 µM
same,GI50,[51],1.94 µM
same,TGI,[51],8.4 µM
same,GI50,[52],1.09 µM
same,TGI,[52],7.01 µM
same,GI50,[53],0.0763 µM
same,TGI,[53],1.54 µM
same,GI50,[54],2.29 µM
same,TGI,[54],10.6 µM
same,GI50,[55],1.33 µM
same,TGI,[55],3.97 µM
same,GI50,[56],1.02 µM
same,TGI,[56],5.18 µM
same,GI50,[57],0.32 µM
same,TGI,[57],2.32 µM
same,GI50,[58],0.232 µM
same,TGI,[58],3.31 µM
O=C1c2ccccc2C(=O)c2c1c1cc(O)ccc1n2Cc1ccc(Cl)cc1Cl,TGI,[1],20.1 µM
same,TGI,[3],37.9 µM
same,TGI,[4],73.2 µM
same,TGI,[5],13.8 µM
same,TGI,[6],23.3 µM
same,TGI,[7],3.97 µM
same,TGI,[8],9.44 µM
same,TGI,[10],21.2 µM
same,TGI,[11],47.4 µM
same,TGI,[12],29.7 µM
same,TGI,[13],16.3 µM
same,TGI,[14],> 100 µM
same,TGI,[15],46.6 µM
same,TGI,[16],27.4 µM
same,TGI,[17],29.8 µM
same,TGI,[18],9.88 µM
same,TGI,[19],8.09 µM
same,TGI,[20],34.7 µM
same,TGI,[22],12.2 µM
same,TGI,[23],27.8 µM
same,TGI,[24],36.1 µM
same,TGI,[25],21.8 µM
same,TGI,[26],16.5 µM
same,TGI,[27],> 100 µM
same,TGI,[28],> 100 µM
same,TGI,[29],11.4 µM
same,TGI,[30],> 100 µM
same,TGI,[59],38.7 µM
same,TGI,[31],43.4 µM
same,TGI,[32],11.7 µM
same,TGI,[33],63.9 µM
same,TGI,[34],33.9 µM
same,TGI,[35],13.3 µM
same,TGI,[37],36.9 µM
same,TGI,[38],> 100 µM
same,TGI,[39],19.9 µM
same,TGI,[41],51 µM
same,TGI,[44],> 100 µM
same,TGI,[45],31.1 µM
same,TGI,[46],69.9 µM
same,TGI,[47],5.66 µM
same,TGI,[48],> 100 µM
same,TGI,[49],26.7 µM
same,TGI,[50],17.5 µM
same,TGI,[52],14.7 µM
same,TGI,[53],11.8 µM
same,TGI,[54],38.1 µM
same,TGI,[55],4.27 µM
same,TGI,[56],19.1 µM
same,TGI,[57],14.4 µM
same,TGI,[58],18.9 µM
C=CCn1c(=O)c(-c2ccccc2)c(O)c2ccccc21,TGI,[1],> 100 µM
same,TGI,[2],> 100 µM
same,TGI,[3],> 100 µM
same,TGI,[4],> 100 µM
same,TGI,[6],> 100 µM
same,TGI,[7],> 100 µM
same,TGI,[8],> 100 µM
same,TGI,[9],> 100 µM
same,TGI,[10],> 100 µM
same,TGI,[11],> 100 µM
same,TGI,[12],> 100 µM
same,TGI,[13],> 100 µM
same,TGI,[14],> 100 µM
same,TGI,[16],> 100 µM
same,TGI,[17],> 100 µM
same,TGI,[18],> 100 µM
same,TGI,[19],> 100 µM
same,TGI,[20],> 100 µM
same,TGI,[21],> 100 µM
same,TGI,[22],> 100 µM
same,TGI,[23],> 100 µM
same,TGI,[24],> 100 µM
same,TGI,[26],> 100 µM
same,TGI,[27],> 100 µM
same,TGI,[28],> 100 µM
same,TGI,[29],> 100 µM
same,TGI,[30],> 100 µM
same,TGI,[59],> 100 µM
same,TGI,[31],> 100 µM
same,TGI,[32],> 100 µM
same,TGI,[33],> 100 µM
same,TGI,[35],> 100 µM
same,TGI,[37],> 100 µM
same,TGI,[38],> 100 µM
same,TGI,[39],> 100 µM
same,TGI,[40],> 100 µM
same,TGI,[41],> 100 µM
same,TGI,[42],> 100 µM
same,TGI,[43],> 100 µM
same,TGI,[44],> 100 µM
same,TGI,[45],> 100 µM
same,TGI,[46],> 100 µM
same,TGI,[47],> 100 µM
same,TGI,[48],> 100 µM
same,TGI,[49],> 100 µM
same,TGI,[50],> 100 µM
same,TGI,[51],> 100 µM
same,TGI,[52],> 100 µM
same,TGI,[53],> 100 µM
same,TGI,[54],> 100 µM
same,TGI,[55],> 100 µM
same,TGI,[56],> 100 µM
same,TGI,[57],> 100 µM
same,TGI,[58],> 100 µM
